Data on 27 compounds can be found in patent US11045472B2, “Quinazoline-pyridine derivatives for the treatment of cancer-related disorders” (ARCUS BIOSCIENCES, INC., priority 2017, dated 2021).

The target in one test is T1, Human A2AR (Homo sapiens, UniProt P29274).
T1 construct: expressed in transfected cells; host or cells: CHO-T-REx cells (inducible expression)
The experiment in a line: human 2A Adenosine Receptor (A2aR) CHO-TREx cAMP functional assay. In kind it is cell-based. The note with it: cAMP antagonist functional assay, CHO-T-REx cells expressing Human A2AR, NECA stimulation; read-out: Potency: A2AR KB. The protocol:
Measurement of the Adenosine Receptor Activity of Compounds using a human 2A Adenosine Receptor (A2aR) CHO-TREx cAMP Functional Assay
The cAMP antagonist functional assay (Perkin Elmer) was performed on CHO-T-REx cells induced to express Human A2AR. Cells were seeded to a white 384-well Opti plate at a density of 1,000 to 2,500 cells per well followed by incubation with various concentrations of compound (ranging from 1 μM to 0 μM) at 37° C. for 1 hour.
(§1) A 1:2 serial dilution of NECA (Sigma Aldrich) from 1 μM to 0 μM was added to the cell stimulation mixture and incubated for 30 min at 37° C. After 30 min incubation, 5 μL of Ulight-anti-cAMP (1:150 dilution with conjugate and lysis buffer provided by Perkin Elmer) and 5 μL of Eu-cAMP tracer (1:50 dilution with conjugate and lysis buffer provided by Perkin Elmer) was added the cells and incubated for an hour. FRET signal was detected with an Envision multilabel plate reader (Perkin Elmer) loaded with 615 nm […] filters and 665 nm emission filters.
(§2) Data analysis was performed using on GraphPad Prism (version 7.02) to determine the KB of the test compounds.

Another test deals with T2, Human A2BR (Homo sapiens, UniProt P29275).
T2 sequence (P29275 1-332): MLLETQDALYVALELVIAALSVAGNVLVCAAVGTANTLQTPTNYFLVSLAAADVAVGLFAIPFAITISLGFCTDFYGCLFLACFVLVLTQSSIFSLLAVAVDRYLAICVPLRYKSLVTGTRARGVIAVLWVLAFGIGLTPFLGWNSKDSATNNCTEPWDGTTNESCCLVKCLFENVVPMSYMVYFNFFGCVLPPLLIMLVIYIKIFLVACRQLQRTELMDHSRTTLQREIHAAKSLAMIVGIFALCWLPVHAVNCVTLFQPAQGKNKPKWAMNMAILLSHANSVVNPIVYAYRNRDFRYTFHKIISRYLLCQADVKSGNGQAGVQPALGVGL
The experiment in a line: Human 2B Adenosine Receptor CHO-K1 cAMP functional assay. Particulars: cAMP antagonist functional assay, CHO-K1 cells stably expressing Human A2BR, NECA stimulation; read-out: Potency: A2BR KB. It counts as cell-based. As for the experimental part: Measurement of the Adenosine Receptor Activity of Compounds Using a Human 2B Adenosine Receptor CHO-K1 cAMP Functional Assay
CHO-K1 cells stably expressing Human Adenosine 2B Receptor (A2BR: Cat. No. M000329, GenScript) were purchased from GenScript Inc., Piscataway, N.J. 08854, USA.
The cAMP antagonist functional assay (Perkin Elmer) was performed on CHO-K1 cells stably expressing Human A2BR. 1×10^6 cells were seeded in T75 flasks and cultured at 37° C. and 5% CO2 overnight. 2,000-4,000 cells/well of stably-expressed A2bR CHO-K1 cells were then seeded to a white 384-well Opti plate followed by compound 1 incubation at various concentrations (ranging from 1 μM to 0 μM) at 37° C. for 1 hour.
as §1, §2

T1 sequence (P29274 whole entry): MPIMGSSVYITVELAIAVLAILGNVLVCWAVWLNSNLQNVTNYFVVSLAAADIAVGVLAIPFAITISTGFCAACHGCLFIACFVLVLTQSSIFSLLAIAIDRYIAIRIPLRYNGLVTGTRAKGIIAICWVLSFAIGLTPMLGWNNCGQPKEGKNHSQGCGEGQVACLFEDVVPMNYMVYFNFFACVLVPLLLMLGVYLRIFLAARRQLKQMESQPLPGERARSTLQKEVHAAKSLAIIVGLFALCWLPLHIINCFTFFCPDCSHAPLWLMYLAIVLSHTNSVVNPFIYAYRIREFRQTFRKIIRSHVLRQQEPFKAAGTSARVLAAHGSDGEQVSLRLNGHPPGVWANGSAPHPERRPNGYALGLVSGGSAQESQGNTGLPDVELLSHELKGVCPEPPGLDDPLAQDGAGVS

As for `CC(C)(O)c1cccc(Cn2cc(-c3nc(N)nc4c(F)c(F)ccc34)nn2)n1`, the antagonist dissociation constant (Kb) on Human A2AR and at Human A2BR was below 100 nM each time.
For `COCCOCc1cccc(Cn2cc(-c3nc(N)nc4c(Cl)cccc34)nn2)n1`, the Kb on Human A2AR and at Human A2BR was below 100 nM each time.
For the compound `COc1cccc2c(-c3cn(Cc4cccc(COC[C@H]5CCCO5)n4)nn3)nc(N)nc12`, the Kb on Human A2AR and at Human A2BR was below 100 nM throughout.
As for `CCOc1cccc2c(-c3cn(Cc4cccc(C(C)(C)O)n4)nn3)nc(N)nc12`, the values for the antagonist dissociation constant (Kb) at Human A2AR and on Human A2BR were below 100 nM and 100 to 1000 nM, respectively.
Regarding `CC(C)(O)c1cccc(Cn2cc(-c3nc(N)nc4cc(C#N)ccc34)nn2)n1`, the Kb at Human A2AR and on Human A2BR was below 100 nM throughout.
As to `COc1cccc2c(-c3cn(Cc4cccc(-c5cccc(C(=O)O)c5)n4)nn3)nc(N)nc12`, the Kb on Human A2AR and on Human A2BR was below 100 nM in each case.
Regarding `COc1cccc2c(-c3cn(Cc4cccc(-c5ccc(C(=O)O)cc5)n4)nn3)nc(N)nc12`, the Kb on Human A2AR and on Human A2BR was below 100 nM in each case.
Turning to `COc1cccc2c(-c3cn(Cc4cccc(N5CCCC5=O)n4)nn3)nc(N)nc12`, the Kb on Human A2AR and at Human A2BR was below 100 nM throughout.
On to `COc1cccc2c(-c3cn(Cc4cccc(N5CCC(O)C5)n4)nn3)nc(N)nc12` (stereo not drawn), for which the antagonist equilibrium constant (Kb) at Human A2AR and at Human A2BR was below 100 nM each time.
As to `COc1cccc2c(-c3cn(Cc4cccc(-c5ccccc5C(=O)O)n4)nn3)nc(N)nc12`, the results for the Kb at Human A2AR and at Human A2BR were below 100 nM and 100 to 1000 nM, respectively.
In the case of `COc1cccc2c(-c3cn(Cc4cccc(C5(O)CCOCC5)n4)nn3)nc(N)nc12`, the antagonist equilibrium constant (Kb) at Human A2AR and on Human A2BR was below 100 nM throughout.
For the compound `COc1cccc2c(-c3cn(Cc4cccc(C5(O)COC5)n4)nn3)nc(N)nc12`, the antagonist dissociation constant (Kb) on Human A2AR and on Human A2BR was below 100 nM in each case.
In the case of `Nc1nc(-c2cn(Cc3cccc(C4(O)COC4)n3)nn2)c2cccc(F)c2n1`, the results for the antagonist dissociation constant (Kb) at Human A2AR and at Human A2BR were below 100 nM and 100 to 1000 nM, respectively.
As to `COc1ccc2c(-c3cn(Cc4cccc(C(C)(C)O)n4)nn3)nc(N)nc2c1`, the Kb on Human A2AR and at Human A2BR was below 100 nM in each case.
Take `COc1cccc2c(-c3cn(Cc4cccc(C(C)(C)CO)n4)nn3)nc(N)nc12`: the antagonist dissociation constant (Kb) at Human A2AR and on Human A2BR was below 100 nM each time.
`CC(C)(CO)c1cccc(Cn2cc(-c3nc(N)nc4c(F)cccc34)nn2)n1`: the antagonist equilibrium constant (Kb) on Human A2AR and on Human A2BR was below 100 nM throughout.
Take `COc1c(F)ccc2c(-c3cn(Cc4cccc(C(C)(C)CO)n4)nn3)nc(N)nc12`: the antagonist dissociation constant (Kb) at Human A2AR and at Human A2BR was below 100 nM each time.
For the compound `COc1c(F)ccc2c(-c3cn(Cc4cccc(C5(O)COC5)n4)nn3)nc(N)nc12`, the Kb at Human A2AR and on Human A2BR was below 100 nM in each case.
With `COc1cccc2c(-c3cnn(Cc4cccc(C5(O)CCC5)n4)c3)nc(N)nc12`, the Kb at Human A2AR and at Human A2BR was below 100 nM in each case.
Regarding `COc1cccc2c(-c3cn(Cc4cccc(C(C)(O)C(F)(F)F)n4)nn3)nc(N)nc12` (stereo not drawn), the antagonist equilibrium constant (Kb) on Human A2AR and on Human A2BR was below 100 nM in each case.
Regarding `COc1cccc2c(-c3cn(Cc4cccc([C@](C)(O)C(F)(F)F)n4)nn3)nc(N)nc12`, the antagonist equilibrium constant (Kb) on Human A2AR and at Human A2BR was below 100 nM throughout.
Regarding `COc1cccc2c(-c3cn(Cc4cccc([C@@](C)(O)C(F)(F)F)n4)nn3)nc(N)nc12`, the antagonist dissociation constant (Kb) at Human A2AR and on Human A2BR was below 100 nM throughout.
Regarding `COc1cc(F)cc2c(-c3cn(Cc4cccc(C(C)(C)O)n4)nn3)nc(N)nc12`, the antagonist dissociation constant (Kb) at Human A2AR and at Human A2BR was below 100 nM in each case.
As to `CCOC(=O)N1CCC(c2cccc(Cn3cc(-c4nc(N)nc5c(OC)cccc45)nn3)n2)CC1`, the antagonist dissociation constant (Kb) on Human A2AR and at Human A2BR was below 100 nM in each case.
Take `COc1cccc2c(-c3cn(Cc4cccc(C(C)(C)O)n4)nn3)nc(NC(C)C)nc12`: the Kb at Human A2AR and on Human A2BR was below 100 nM in each case.
On to `COc1cccc2c(-c3cn(Cc4cccc(C(C)(C)O)n4)nn3)nc(NC3CC3)nc12`, for which the Kb on Human A2AR and at Human A2BR was below 100 nM throughout.
In the case of `COc1cccc2c(-c3cn(Cc4cccc(C(C)(C)O)n4)nn3)nc(N[C@H]3CCOC3)nc12`, the Kb on Human A2AR and on Human A2BR was below 100 nM each time.

The term Kb denotes the affinity of an antagonist, worked out from how it opposes an agonist.
